Test results as given in BigSolDB 2.1.

CC(C)(C)C(=O)C(Oc1ccc(Cl)cc1)n1ccnc1 (centres undefined)
solubility (mole fraction)
Settings | 278.15 K | 283.15 K | 288.15 K | 293.15 K | 298.15 K | 303.15 K | 308.15 K | 313.15 K | 318.15 K
in ethanol | 0.0801 | 0.0952 | 0.112 | 0.133 | 0.159 | 0.184 | 0.215 | 0.249 | 0.287
in n-butanol | 0.0804 | 0.0957 | 0.112 | 0.132 | 0.156 | 0.18 | 0.209 | 0.243 | 0.282
in n-heptanol | 0.0686 | 0.0797 | 0.0937 | 0.111 | 0.131 | 0.152 | 0.18 | 0.21 | 0.245
in n-hexanol | 0.073 | 0.0858 | 0.0999 | 0.119 | 0.141 | 0.164 | 0.192 | 0.223 | 0.263
in n-pentanol | 0.0781 | 0.0912 | 0.107 | 0.127 | 0.15 | 0.174 | 0.204 | 0.238 | 0.273
in n-propanol | 0.0842 | 0.0998 | 0.117 | 0.139 | 0.165 | 0.19 | 0.22 | 0.254 | 0.29
